Patent EP4722201A1, “3-PHENYLISOXAZOLINE-5-CARBOXAMIDE COMPOUND, AND PREPARATION METHOD THEREFOR, HERBICIDAL COMPOSITION THEREOF AND USE THEREOF” (Jiangsu Flag Chemical Industry Co., Ltd, priority 2023, dated 2024)

What was measured:
Format in all cases: in vivo
Cyperus iria = experiment: Indoor herbicide activity determination, post-emergence (stem and leaf spray at 2-4 leaf stage); settings: 504 h, 60 g a.i./ha, determined 21 days later, read-out: Inhibition rate of fresh weight, Cyperus iria
Excerpt: (§1) The testing method for herbicide activity of the compound of the present invention was as follows:
(§2) Post-emergence: an appropriate quantity of seeds of gramineous weeds (Echinochloa crusgalli, Eleusine indica, Digitaria sanguinalis, Alopecurus japonicus, Beckmannia syzigachne, Leptochloa chinensis, Polypogon fugax, Alopecurus aequalis, Lolium multiflorum, Poa annua, Aegilops tauschii, Avena fatua, Alopecurus myosuroides, Alopecurus japonicus and Alopecurus aequalis), broad-leaved weeds (Eclipta prostrata, Amaranthus retroflexus, Rorippa indica, Malachium aquaticum, Veronica polita, Conyza canadensis, Sesbania cannabina, Sagittariatrifolia and Schoenoplectiella juncoides), and Cyperus iria were sown in plastic pots having a diameter of 7 cm and holes at the bottom and filled with nutrient soil (sandy soil, pH 6.1, organic matter 1%) respectively, the seeds were covered with an appropriate amount of soil after being sown, then the soil was wetted with water from the bottom, the seeds were cultured in a constant-temperature illuminated culture room until a 2-4 leaf stage, and stems and leaves underwent spray treatment. After the treatment, the test materials were placed in a laboratory and cultured in the constant-temperature illuminated culture room after the liquid was naturally dry in the shade, and results were determined 21 days later. Inhibition rate of fresh weight % = (1−(fresh weight of treated plants)/(fresh weight of control plants)) × 100% [formula]

Digitaria sanguinalis = experiment: as above; settings: 504 h, 60 g a.i./ha, determined 21 days later, read-out: Inhibition rate of fresh weight, Digitaria sanguinalis
Excerpt: as §1, §2

Eclipta prostrata = experiment: as above; settings: 504 h, 60 g a.i./ha, determined 21 days later, read-out: Inhibition rate of fresh weight, Eclipta prostrata
Excerpt: as §1, §2

Alopecurus japonicus = experiment: Indoor herbicide activity determination, Seed Treatment; pre-emergence (soil spray); settings: Dosage 240 g a.i./ha
Summary of the method: (§3)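 Herbicide was applied to soil before weed emergence, 24 h after sowing, by tower spraying. Plants grew at constant temperature with illumination, and fresh weight compared with untreated pots gave % inhibition after 21 days.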

Alopecurus myosuroides = experiment: as above; settings: Dosage 240 g a.i./ha
Summary of the method: as §3

Eleusine indica = experiment: as above; settings: Dosage 240 g a.i./ha
Summary of the method: as §3

Leptochloa chinensis = experiment: as above; settings: Dosage 240 g a.i./ha
Summary of the method: as §3

Lolium multiflorum = experiment: as above; settings: Dosage 240 g a.i./ha
Summary of the method: as §3

Row | Compound | inhibition at 60 g/ha (Cyperus iria) [%] | inhibition at 60 g/ha (Digitaria sanguinalis) [%] | inhibition at 60 g/ha (Eclipta prostrata) [%] | Herbicidal activities, Alopecurus japonicus (inhibition rate class) (Alopecurus japonicus) | Herbicidal activities, Alopecurus myosuroides (inhibition rate class) (Alopecurus myosuroides) | Herbicidal activities, Eleusine indica (inhibition rate class) (Eleusine indica) | Herbicidal activities, Leptochloa chinensis (inhibition rate class) (Leptochloa chinensis) | Herbicidal activities, Lolium multiflorum (inhibition rate class) (Lolium multiflorum)
1 | C=CC1(C(=O)N[C@H]2C[C@@H](C(=O)O)C2)CC(c2cc(Cl)cc(Cl)c2)=NO1 (mixture of isomers) [I-37] | 80 to 100 | 80 to 100 | 60 to 80 | A (A indicates that the inhibition rate was greater than or equal to 80% to 100%) | A (A indicates that the inhibition rate was greater than or equal to 80% to 100%) | A (A indicates that the inhibition rate was greater than or equal to 80% to 100%) | A (A indicates that the inhibition rate was greater than or equal to 80% to 100%) | A (A indicates that the inhibition rate was greater than or equal to 80% to 100%)
2 | COC(=O)[C@H]1C[C@@H](NC(=O)C2(C(F)(F)F)CC(c3cc(F)cc(OC(F)(F)F)c3)=NO2)C1 (relative stereo) [I-251] | 80 to 100 | 80 to 100 | 60 to 80 | A (A indicates that the inhibition rate was greater than or equal to 80% to 100%) | A (A indicates that the inhibition rate was greater than or equal to 80% to 100%) | A (A indicates that the inhibition rate was greater than or equal to 80% to 100%) | A (A indicates that the inhibition rate was greater than or equal to 80% to 100%) | A (A indicates that the inhibition rate was greater than or equal to 80% to 100%)
3 | CC1(C(=O)N[C@H]2C[C@@H](C(=O)O)C2)CC(c2cc(Cl)cc(Cl)c2)=NO1 (mixture of isomers) [I-137] | 80 to 100 | 80 to 100 | 40 to 60 | A (A indicates that the inhibition rate was greater than or equal to 80% to 100%) | A (A indicates that the inhibition rate was greater than or equal to 80% to 100%) | A (A indicates that the inhibition rate was greater than or equal to 80% to 100%) | A (A indicates that the inhibition rate was greater than or equal to 80% to 100%) | A (A indicates that the inhibition rate was greater than or equal to 80% to 100%)
4 | COC(=O)[C@H]1C[C@@H](NC(=O)C2(C(F)(F)F)CC(c3cc(Cl)cc(Cl)c3)=NO2)C1 (relative stereo) [I-231] | 80 to 100 | 80 to 100 | 60 to 80 | A (A indicates that the inhibition rate was greater than or equal to 80% to 100%) | A (A indicates that the inhibition rate was greater than or equal to 80% to 100%) | A (A indicates that the inhibition rate was greater than or equal to 80% to 100%) | A (A indicates that the inhibition rate was greater than or equal to 80% to 100%) | A (A indicates that the inhibition rate was greater than or equal to 80% to 100%)
5 | O=C(N[C@H]1C[C@@H](C(=O)O)C1)C1(C(F)(F)F)CC(c2cc(F)cc(OC(F)(F)F)c2)=NO1 (relative stereo) [I-249] | 80 to 100 | 80 to 100 | 60 to 80 | A (A indicates that the inhibition rate was greater than or equal to 80% to 100%) | A (A indicates that the inhibition rate was greater than or equal to 80% to 100%) | A (A indicates that the inhibition rate was greater than or equal to 80% to 100%) | A (A indicates that the inhibition rate was greater than or equal to 80% to 100%) | A (A indicates that the inhibition rate was greater than or equal to 80% to 100%)
6 | O=C(N[C@H]1C[C@@H](C(=O)O)C1)C1(C(F)(F)F)CC(c2cccc(F)c2)=NO1 (relative stereo) [I-268] | 80 to 100 | 80 to 100 | 40 to 60 | A (A indicates that the inhibition rate was greater than or equal to 80% to 100%) | A (A indicates that the inhibition rate was greater than or equal to 80% to 100%) | A (A indicates that the inhibition rate was greater than or equal to 80% to 100%) | A (A indicates that the inhibition rate was greater than or equal to 80% to 100%) | A (A indicates that the inhibition rate was greater than or equal to 80% to 100%)
7 | COC(=O)[C@H]1C[C@@H](NC(=O)C2(C)CC(c3cc(F)cc(F)c3)=NO2)C1 (mixture of isomers) [I-113] | 80 to 100 | 80 to 100 | 60 to 80 | A (A indicates that the inhibition rate was greater than or equal to 80% to 100%) | A (A indicates that the inhibition rate was greater than or equal to 80% to 100%) | A (A indicates that the inhibition rate was greater than or equal to 80% to 100%) | A (A indicates that the inhibition rate was greater than or equal to 80% to 100%) | A (A indicates that the inhibition rate was greater than or equal to 80% to 100%)
8 | C=C(F)C1(C(=O)N[C@H]2C[C@@H](C(=O)OC)C2)CC(c2cc(F)cc(F)c2)=NO1 (relative stereo) [I-356] | 80 to 100 | 60 to 80 | 40 to 60 | A (A indicates that the inhibition rate was greater than or equal to 80% to 100%) | A (A indicates that the inhibition rate was greater than or equal to 80% to 100%) | A (A indicates that the inhibition rate was greater than or equal to 80% to 100%) | A (A indicates that the inhibition rate was greater than or equal to 80% to 100%) | A (A indicates that the inhibition rate was greater than or equal to 80% to 100%)
9 | O=C(N[C@H]1C[C@@H](C(=O)O)C1)C1(C(F)(F)F)CC(c2cc(Cl)cc(C(F)(F)F)c2)=NO1 (relative stereo) [I-245] | 80 to 100 | 80 to 100 | 60 to 80 | A (A indicates that the inhibition rate was greater than or equal to 80% to 100%) | A (A indicates that the inhibition rate was greater than or equal to 80% to 100%) | A (A indicates that the inhibition rate was greater than or equal to 80% to 100%) | A (A indicates that the inhibition rate was greater than or equal to 80% to 100%) | A (A indicates that the inhibition rate was greater than or equal to 80% to 100%)
10 | C=CC1(C(=O)N[C@H]2C[C@@H](C(=O)OC)C2)CC(c2cc(F)cc(OC(F)(F)F)c2)=NO1 (mixture of isomers) [I-59] | 80 to 100 | 80 to 100 | 60 to 80 | A (A indicates that the inhibition rate was greater than or equal to 80% to 100%) | A (A indicates that the inhibition rate was greater than or equal to 80% to 100%) | A (A indicates that the inhibition rate was greater than or equal to 80% to 100%) | A (A indicates that the inhibition rate was greater than or equal to 80% to 100%) | A (A indicates that the inhibition rate was greater than or equal to 80% to 100%)
